In patent US10961215B2, “N-aryl and N-heteroaryl piperidine derivatives as liver X receptor beta agonists, compositions, and their use” (Merck Sharp & Dohme Corp., priority 2016, dated 2021):

Experiments:
[1] = biological target: T1, GST tagged LXRalpha LBD (ligand binding domain) (Homo sapiens, UniProt Q13133); assay: LanthaScreen TR-FRET Liver X Receptor Coactivator Assay, LXR alpha-LBD (co-activator recruitment; IP and % Emax relative to T0901317); assay type: biochemical; details: for LXR alpha IP (nM) / EC50: Inflection Point of co-activator recruitment, LXR alpha-LBD, TR-FRET; for Emax: read-out: LXR alpha actiivty at max dose (%)
T1 construct: purchased Invitrogen pv4655
T1 sequence (Q13133 209-447 limits assumed): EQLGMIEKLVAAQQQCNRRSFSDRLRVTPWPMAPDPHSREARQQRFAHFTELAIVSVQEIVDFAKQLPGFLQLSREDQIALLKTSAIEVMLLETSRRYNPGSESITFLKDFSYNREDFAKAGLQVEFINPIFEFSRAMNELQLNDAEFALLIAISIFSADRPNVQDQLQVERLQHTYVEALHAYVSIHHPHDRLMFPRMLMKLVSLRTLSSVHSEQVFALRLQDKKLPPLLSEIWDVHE
Method in brief: (§1)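 TR-FRET coactivator recruitment; LBD + cpd, then fluorescein coactivator peptide/Tb anti-GST Ab mix; RT incubation; IP and Emax vs T0901317.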

[2] = biological target: T2, GST tagged LXRbeta LBD (ligand binding domain) (Homo sapiens, UniProt P55055); assay: LanthaScreen TR-FRET Liver X Receptor Coactivator Assay, LXR beta-LBD (co-activator recruitment; IP and % Emax relative to T0901317); assay type: biochemical; details: for EC50: Inflection Point of co-activator recruitment, LXR beta-LBD, TR-FRET; for Emax: read-out: LXR beta actiivty at max dose (%)
T2 construct: purchased Invitrogen pv4658.pps
T2 sequence (P55055 222-460 limits assumed): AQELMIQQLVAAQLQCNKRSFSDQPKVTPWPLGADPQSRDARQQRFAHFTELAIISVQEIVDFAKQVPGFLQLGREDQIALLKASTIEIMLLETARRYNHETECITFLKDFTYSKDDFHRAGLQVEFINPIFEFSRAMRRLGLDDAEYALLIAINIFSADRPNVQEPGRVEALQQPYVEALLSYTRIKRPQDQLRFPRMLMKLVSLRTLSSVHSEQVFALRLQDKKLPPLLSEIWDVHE
Method in brief: as §1

[3] = efficacy at max dose in relation to reference T0901317, LXR alpha-LBD
[4] = efficacy at max dose in relation to reference T0901317, LXR beta-LBD

In the case of `CN(C)C(=O)c1ccc(N2CCC(CCCN(C)C(=O)[C@](O)(c3cccc(C(F)(F)F)c3)C(F)(F)F)CC2)nc1Cl` [Example 1-49, (R)-2-chloro-N,N-dimethyl-6-(4-(3-(3,3,3-trifluoro-2-hydroxy-N-methyl-2-(3-(trifluoromethyl)phenyl)pro-panamido)propyl)piperidin-1-yl)nicotinamide], the “LXR alpha IP (nM)” value [1] is reported as “No IP”, the Emax [1, 3] is reported as 0% and the EC50 [2] is reported as 54 nM. It also gave an Emax [2, 4] of 50%.

`CN(C)C(=O)c1ccc(N2CCC(CCCN(C)C(=O)[C@@](O)(c3cccc(OC(F)F)c3)C(F)(F)F)CC2)nc1Cl` [Example 1-50, (S)-2-chloro-6-(4-(3-(2-(3-(difluoromethoxy)phenyl)-3,3,3-trifluoro-2-hydroxy-N-methyl-propanamido)propyl)piperidin-1-yl)-N,N-dimethylnicotinamide] was tested, and the “LXR alpha IP (nM)” value [1] was “No IP”, the Emax [1, 3] was 18% and the EC50 [2] was 62 nM. It also gave an Emax [2, 4] of 63%.

`COc1cccc([C@@](O)(C(=O)N(C)CCCC2CCN(c3ccc(C(=O)N(C)C)c(OC)n3)CC2)C(F)(F)F)c1` [Example 2-18, (R)-2-methoxy-N,N-dimethyl-6-(4-(3-(3,3,3-trifluoro-2-hydroxy-2-(3-methoxyphenyl)-N-methylpropanamido)propyl)piperidin-1-yl)nicotinamide] was tested, and the “LXR alpha IP (nM)” value [1] was “No IP”, the Emax [1, 3] was 0% and the EC50 [2] was 523 nM. The Emax [2, 4] was 47%.

In the case of `CN(C)C(=O)c1ccc(N2CCC(CCCN(C)C(=O)C(O)(c3ccccc3)C(F)(F)F)CC2)cc1Cl` (single isomer, unassigned) [Example 4-7, 2-chloro-N,N-dimethyl-4-(4-(3-(3,3,3-trifluoro-2-hydroxy-N-methyl-2-phenylpropanamido)propyl)piperidin-1-yl)benzamide], the “LXR alpha IP (nM)” value [1] is reported as “No IP”, the “LXR alpha actiivty at max dose (%)” value [1, 3] is reported as 12% and the EC50 [2] is reported as 369 nM. The “LXR beta actiivty at max dose (%)” value [2, 4] was 48%.

An EC50 [1] of 1670 nM, an Emax [1, 3] of 27% and an EC50 [2] of 380 nM were found for `CN(C)C(=O)c1ccc(N2CCC(CCCNC(=O)C(O)(c3ccccc3)C(F)(F)C(F)(F)F)CC2)cc1Cl` (centres unmarked) [Example 5-3, 2-chloro-N,N-dimethyl-4-(4-(3-(3,3,4,4,4-pentafluoro-2-hydroxy-2-phenyl-butanamido)propyl)piperidin-1-yl)benzamide] in this work. For the same compound, the Emax [2, 4] was 118%.

For `CN(C)C(=O)c1ccc(N2CCC(CCCN(C)C(=O)[C@]3(c4ccccc4)CC(F)(F)CO3)CC2)nc1Cl` [Example 1-66, (R)-2-chloro-6-(4-(3-(4,4-difluoro-N-methyl-2-phenyltetrahydrofuran-2-carboxamido)propyl)piperidin-1-yl)-N,N-dimethylnicotinamide], the “LXR alpha IP (nM)” value [1] was “No IP”, the Emax [1, 3] was 7% and the EC50 [2] was 138 nM. For the same compound, the Emax [2, 4] was 82%.

`COc1cccc([C@@](O)(C(=O)N(C)CCCC2CCN(c3ccc(C(=O)N(C)CCn4cncn4)c(Cl)n3)CC2)C(F)(F)F)c1` [Example 2-14] was tested, and the “LXR alpha IP (nM)” value [1] was “No IP”, the Emax [1, 3] was 14% and the EC50 [2] was 83 nM. The Emax [2, 4] was 67%.

For `COc1cccc([C@@](O)(C(=O)NC2(CCC3CCN(c4ccc(C(=O)N(C)C)c(Cl)n4)CC3)CC2)C(F)(F)F)c1` [Example 8-1, (R)-2-chloro-N,N-dimethyl-6-(4-(2-(1-(3,3,3-trifluoro-2-hydroxy-2-(3-methoxyphenyl)propanamido)cyclopropyl)ethyl)piperidin-1-yl)nicotinamide], the “LXR alpha IP (nM)” value [1] was “No IP”, the Emax [1, 3] was 16% and the EC50 [2] was 201 nM. The Emax [2, 4] was 82%.

In the case of `COc1cccc([C@@](O)(C(=O)N(C)[C@H]2C[C@H](C3CCN(c4ccc(C(=O)N(C)C)c(Cl)n4)CC3)C2)C(F)(F)F)c1` [Example 17-3, Trans-2-chloro-N,N-dimethyl-6-(4-(-3-((R)-3,3,3-trifluoro-2-hydroxy-2-(3-methoxyphenyl)-N-methylpropanamido)cyclobutyl)piperidin-1-yl)nicotinamide], the “LXR alpha IP (nM)” value [1] is reported as “No IP”, the Emax [1, 3] is reported as 12% and the EC50 [2] is reported as 27 nM. For the same compound, the Emax [2, 4] was 65%.

In the case of `CN(C)C(=O)c1ccc(N2CCC(C[C@@H]3C[C@H]3CN(C)C(=O)[C@](O)(c3ccccc3)C(F)(F)F)CC2)nc1Cl` [Example 18-4, 2-chloro-N,N-dimethyl-6-(4-(((1R,2R)-2-(((R)-3,3,3-trifluoro-2-hydroxy-N-methyl-2-phenylpropanamido)methyl)cyclopropyl)methyl)piperidin-1-yl)nicotinamide], the “LXR alpha IP (nM)” value [1] is reported as “No IP”, the Emax [1, 3] is reported as 15% and the EC50 [2] is reported as 66 nM. It also gave an Emax [2, 4] of 57%.

With `CN(C)C(=O)c1ccc(N2CCC(CCCNC(=O)[C@](O)(c3cccc(OC4CC4)c3)C(F)(F)F)CC2)nc1Cl` [Example 5-11, (R)-2-chloro-6-(4-(3-(2-(3-cyclopropoxyphenyl)-3,3,3-trifluoro-2-hydroxypropanamido)propyl)piperidin-1-yl)-N,N-dimethylnicotinamide] the “LXR alpha IP (nM)” value [1] was “No IP”, the Emax [1, 3] was -8% and the EC50 [2] was 349 nM. For the same compound, the Emax [2, 4] was 46%.

An EC50 [1] of 95 nM, an Emax [1, 3] of 40% and an EC50 [2] of 11 nM were found for `COc1cccc([C@@](O)(C(=O)N(C)CCCC2CCN(c3ccc(C(=O)N(C)Cc4noc(C5CC5)n4)c(Cl)n3)CC2)C(F)(F)F)c1` [Example 2-12, (R)-2-chloro-N-((5-cyclopropyl-1,2,4-oxadiazol-3-yl)methyl)-N-methyl-6-(4-(3-(3,3,3-trifluoro-2-hydroxy-2-(3-methoxyphenyl)-N-methylpropanamido)propyl)piperidin-1-yl)nicotinamide] in this work. For the same compound, the Emax [2, 4] was 62%.

For `COc1cccc([C@@](O)(C(=O)N(C)CCC2CC3(CCN(c4ccc(C(=O)NC5CC5)c(Cl)n4)CC3)C2)C(F)(F)F)c1` [Example 13-3, 2-chloro-N-cyclopropyl-6-(2-(2-((R)-3,3,3-trifluoro-2-hydroxy-2-(3-methoxyphenyl)-N-methylpropanamido)ethyl)-7-azaspiro[3.5]nonan-7-yl)nicotinamide], the “LXR alpha IP (nM)” value [1] was “No IP”, the Emax [1, 3] was 1% and the EC50 [2] was 654 nM. For the same compound, the Emax [2, 4] was 35%.

For `CN(C)C(=O)c1ccc(N2CCC(CCCN(C)C(=O)[C@@](O)(c3cccc(OC4CC4)c3)C(F)(F)F)CC2)nc1Cl` [Example 1-35, (S)-2-chloro-6-(4-(3-(2-(3-cyclopropoxyphenyl)-3,3,3-trifluoro-2-hydroxy-N-methylpropanamido)propyl)piperidin-1-yl)-N,N-dimethylnicotinamide], the “LXR alpha IP (nM)” value [1] was “No IP”, the Emax [1, 3] was 14% and the EC50 [2] was 437 nM. For the same compound, the Emax [2, 4] was 46%.

An EC50 [1] of 17400 nM, an Emax [1, 3] of 38% and an EC50 [2] of 1040 nM were found for `CC(C)[C@]1(C(=O)N(C)CCCC2CCN(c3ccc(C(=O)N(C)C)c(Cl)n3)CC2)CCCO1` [Example 1-19, (S)-2-chloro-6-(4-(3-(2-isopropyl-N-methyl-tetrahydrofuran-2-carboxamido)propyl)piperidin-1-yl)-N,N-dimethylnicotinamide] in this work. For the same compound, the Emax [2, 4] was 41%.

An EC50 [1] of 2390 nM, an Emax [1, 3] of 28% and an EC50 [2] of 273 nM were found for `CN(C)C(=O)c1ccc(N2CCC(CC3CC(NC(=O)[C@](O)(c4ccccc4)C(F)(F)F)C3)CC2)nc1Cl` (stereo partly drawn) [Example 11-2, (R)-2-chloro-N,N-dimethyl-6-(4-((3-(3,3,3-trifluoro-2-hydroxy-2-phenylpropanamido)cyclobutyl)methyl)piperidin-1-yl)nicotinamide] in this work. The Emax [2, 4] was 118%.

An EC50 [1] of 472 nM, an Emax [1, 3] of 26% and an EC50 [2] of 34 nM were found for `COc1cccc([C@@](O)(C(=O)N(C)CCC2CC3(CCN(c4ccc(C(=O)N(C)C)c(Cl)n4)CC3)C2)C(F)(F)F)c1` [Example 13-1] in this work. The Emax [2, 4] was 50%.

In the case of `CN(C)C(=O)c1ccc(N2CCC([C@H]3C[C@H]3CN(C)C(=O)[C@](O)(c3cccc(C(F)(F)F)c3)C(F)(F)F)CC2)nc1Cl` [Example 15-7, 2-chloro-N,N-dimethyl-6-(4-((1R,2R)-2-(((R)-3,3,3-trifluoro-2-hydroxy-N-methyl-2-(3-(trifluoromethyl)phenyl)rpropanamido)methyl)cyclopropyl)piperidin-1-yl)nicotinamide], the “LXR alpha IP (nM)” value [1] is reported as “No IP”, the Emax [1, 3] is reported as 11% and the EC50 [2] is reported as 26 nM. It also gave an Emax [2, 4] of 53%.

For `COc1cccc([C@@](O)(C(=O)N(C)CCCC2CCN(c3ccc(C(=O)N4CCCC4)c(Cl)n3)CC2)C(F)(F)F)c1` [Example 2-6, (R)-N-(3-(1-(6-chloro-5-(pyrrolidine-1-carbonyl)pyridin-2-yl)piperidin-4-yl)propyl)-3,3,3-trifluoro-2-hydroxy-2-(3-methoxyphenyl)-N-methylpropanamide], the “LXR alpha IP (nM)” value [1] was “No IP”, the Emax [1, 3] was 0% and the EC50 [2] was 126 nM. It also gave an Emax [2, 4] of 50%.

An EC50 [1] of 2510 nM, an Emax [1, 3] of 32% and an EC50 [2] of 45 nM were found for `CN(C)C(=O)c1ccc(N2CCC(CCCN(C)C(=O)C(O)(c3cccc(O)c3)C(F)(F)F)CC2)nc1Cl` (centres unmarked) [Example 1-45, 2-chloro-N,N-dimethyl-6-(4-(3-(3,3,3-trifluoro-2-hydroxy-2-(3-hydroxyphenyl)-N-methylpropanamido)propyl)piperidin-1-yl)nicotinamide] in this work. For the same compound, the Emax [2, 4] was 82%.
